Here are results for four molecules from ChEMBL document CHEMBL4673295 (Bioorg Med Chem, 2021).

The nature of assay [1]: Binding affinity to Escherichia coli BL21 (DE3) HPPK incubated for 10 mins by fluorimetry.
Assay [2] can be described thus: Binding affinity to Escherichia coli HPPK by isothermal titration calorimetry. For orientation: Isothermal titration calorimetry measures the heat released or taken up as one component is titrated into another.
The nature of assay [3]: Inhibition of Escherichia coli HPPK incubated for 30 mins by thin layer chromatography.
Assay [4] in a line: Binding affinity to Escherichia coli BL21 (DE3) HPPK in presence of ATP and MgCl2 by fluorimetry.

A word on the Kd: it is the free concentration of one partner at which half of the binding sites on the other are occupied at equilibrium, for simple one-to-one binding. As usually defined, the IC50 is the concentration that gives 50% inhibition. Lower therefore signals higher potency.

Molecule `Nc1ncnc2c1ncn2[C@@H]1O[C@H](COP(=O)(O)OP(=O)(O)OP(=O)(O)O)[C@@H](O)[C@H]1O` [ADENOSINE TRIPHOSPHATE] gave a Kd in assay [1] of 2600 nM.
For `CC1(C)Nc2nc(N)[nH]c(=O)c2N=C1C(=O)NCCN1CC[C@@H](SC[C@H]2O[C@@H](n3cnc4c(N)ncnc43)[C@H](O)[C@@H]2O)C[C@@H]1C(=O)O`, the Kd in assay [2] was 190 nM. Further, 380 nM corresponded to half-maximal inhibition in assay [3] (IC50).
Consider `CC1(C)Nc2nc(N)[nH]c(=O)c2N=C1C(=O)NCCN1CC[C@@H](S(=O)(=O)C[C@H]2O[C@@H](n3cnc4c(N)ncnc43)[C@H](O)[C@@H]2O)C[C@@H]1C(=O)O`, for which the Kd in assay [2] is 47 nM.
Regarding `Nc1nc2c(c(=O)[nH]1)N=C(CO)CN2`, the Kd in assay [4] stood at 170 nM.
